Test results taken from ChEMBL document CHEMBL1137546, “The discovery of indole-derived long acting beta2-adrenoceptor agonists for the treatment of asthma and COPD” (Bioorg Med Chem Lett, 2007).

Assays:
Homo sapiens = species: Homo sapiens; test: Ratio of EC50 for human recombinant adrenergic beta-2 receptor to EC50 for human recombinant adrenergic beta-1 receptor
[1] = Lipophilicity, log D of the compound; format: physicochemical; conditions: octanol/water
[2] = target: Beta-2 adrenergic receptor (Homo sapiens, UniProt P07550)
Description: Agonist activity at human recombinant adrenergic beta-2 receptor expressed in CHO cells assessed as elevation in cAMP levels

[3] = Apparent permeability from basolateral to apical side of human Caco-2 cell membrane; format: ADME, cell-based
[4] = Half life in iv dosed rat; format: ADME, organism-based; conditions: in vivo
[5] = Total clearance in iv dosed rat; format: ADME, organism-based; conditions: in vivo
[6] = Oral bioavailability po dosed rat; format: ADME, organism-based; conditions: in vivo
[7] = Metabolic stability in human liver microsomes; format: ADME, Microsome
[8] = Apparent permeability from apical to basolateral side of human Caco-2 cell membrane; format: ADME, cell-based
[9] = Volume of distribution in iv dosed rat; format: ADME, organism-based; conditions: in vivo
[10] = Protein binding in rat plasma; format: ADME, cell-free; conditions: read-out: PPB (converted)
Rattus norvegicus = test: Unbound clearance in iv dosed rat; format: ADME, organism-based; conditions: in vivo

Sequence of Beta-2 adrenergic receptor (P07550 whole entry): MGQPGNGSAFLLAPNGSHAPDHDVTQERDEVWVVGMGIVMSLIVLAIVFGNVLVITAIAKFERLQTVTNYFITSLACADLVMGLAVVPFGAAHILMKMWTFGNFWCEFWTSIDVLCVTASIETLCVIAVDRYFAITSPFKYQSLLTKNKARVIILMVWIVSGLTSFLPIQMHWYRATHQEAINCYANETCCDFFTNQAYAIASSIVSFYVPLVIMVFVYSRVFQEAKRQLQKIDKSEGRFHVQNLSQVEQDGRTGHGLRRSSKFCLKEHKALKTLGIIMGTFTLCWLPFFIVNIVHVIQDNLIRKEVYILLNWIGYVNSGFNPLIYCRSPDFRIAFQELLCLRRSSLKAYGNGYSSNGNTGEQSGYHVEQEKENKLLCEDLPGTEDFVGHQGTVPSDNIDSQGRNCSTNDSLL

Row | Structure (SMILES) | Ratio EC50 (Homo sapiens) | logD [1] | EC50 [2] [nM] | other results
1 | C[C@H](Cc1ccc2[nH]c(C(=O)NCc3nccs3)cc2c1)NC[C@H](O)c1ccc(O)c(CO)c1 | 1340 | 0.8 | 0.031 | –
2 | COc1cccc(OC)c1CNC(=O)c1cc2cc(C[C@@H](C)NC[C@H](O)c3ccc(O)c(CO)c3)ccc2[nH]1 | 4040 | 2.2 | 0.058 | Papp B→A [3]: 140 nm/s; half-life [4]: 96 min; clearance [5]: 7.8 L/h/kg; bioavailability [6]: < 5%; half-life [7]: 4 min; Papp A→B [8]: < 10 nm/s; Vd [9]: 18 L/kg; fraction unbound [10]: 0.1; CL (Rattus norvegicus): 72 L/h/kg
3 | C[C@H](Cc1ccc2[nH]c(C(=O)NCc3ccccn3)cc2c1)NC[C@H](O)c1ccc(O)c(CO)c1 | 1530 | – | 0.038 | –
4 | OCc1cc([C@@H](O)CNCCCCCCOCCCCc2ccccc2)ccc1O [SALMETEROL] | – | 2.1 | – | –
5 | C[C@H](Cc1ccc2[nH]c(C(=O)NCc3ccc(O)cc3)cc2c1)NC[C@H](O)c1ccc(O)c(CO)c1 | 75 | – | 0.164 | –
6 | CCn1c(C(=O)NCc2c(OC)cccc2OC)cc2cc(C[C@@H](C)NC[C@H](O)c3ccc(O)c(CO)c3)ccc21 | 254 | – | 2.55 | –
7 | COc1ccccc1CNC(=O)c1cc2cc(C[C@@H](C)NC[C@H](O)c3ccc(O)c(CO)c3)ccc2[nH]1 | 1240 | 2.2 | – | –
8 | C[C@H](Cc1ccc2[nH]c(C(=O)NCc3ccccc3)cc2c1)NC[C@H](O)c1ccc(O)c(CO)c1 | 480 | – | 0.049 | –
9 | COc1cccc(CCNC(=O)c2cc3cc(C[C@@H](C)NC[C@H](O)c4ccc(O)c(CO)c4)ccc3[nH]2)c1 | 35 | 2 | 0.254 | –
10 | C[C@H](Cc1ccc2[nH]c(C(=O)NCc3ccc(S(N)(=O)=O)cc3)cc2c1)NC[C@H](O)c1ccc(O)c(CO)c1 | 42 | – | 0.122 | –
11 | COc1cccc(OC)c1CNC(=O)c1cc2cc(C[C@@H](C)NC[C@H](O)c3ccc(O)c(CO)c3)ccc2n1Cc1ccccc1 | 237 | – | 0.687 | –
12 | CSc1ccccc1CNC(=O)c1cc2cc(C[C@@H](C)NC[C@H](O)c3ccc(O)c(CO)c3)ccc2[nH]1 | 332 | – | 0.038 | –
13 | C[C@H](Cc1ccc2[nH]c(C(=O)NCc3c(F)cccc3F)cc2c1)NC[C@H](O)c1ccc(O)c(CO)c1 | 296 | – | 0.053 | –
14 | CC[C@H](Cc1ccc2[nH]c(C(=O)NCc3c(OC)cccc3OC)cc2c1)NC[C@H](O)c1ccc(O)c(CO)c1 | 5740 | – | 0.258 | –
15 | C[C@H](Cc1ccc2[nH]c(C(=O)N[C@H](C)c3ccccc3)cc2c1)NC[C@H](O)c1ccc(O)c(CO)c1 | 585 | 2.2 | 0.058 | –
16 | C[C@H](Cc1ccc2[nH]c(C(=O)NCC3CCC3)cc2c1)NC[C@H](O)c1ccc(O)c(CO)c1 | 410 | 1.9 | 0.051 | –
17 | C[C@H](Cc1ccc2[nH]c(C(=O)N(C)Cc3ccccc3)cc2c1)NC[C@H](O)c1ccc(O)c(CO)c1 | 882 | 2.1 | 0.022 | –
18 | COc1cccc(OC)c1CNC(=O)c1cc2cc(C[C@@H](C)NC[C@H](O)c3ccc(O)c(CO)c3)ccc2n1C | 1080 | – | 0.706 | –
